Results on nine compounds are retold here after patent US20260015350A1, “AZAQUINAZOLINE PAN-KRAS INHIBITORS” (Mirati Therapeutics, Inc., priority 2022, published 2026).

Where only a bound is given, the exact number is not on record here.

Test [1] deals with T1, KRas^Q61H (Homo sapiens, UniProt P01116, Q61H).
T1 construct: Biotinylated KRas (corresponding to amino acids 1-169, produced at Accelegan Inc.); biotin (biotinylated); purchased Accelegan Inc
Put plainly: KRas binding assay (TR-FRET tracer displacement), KRas Q61H. Conditions: TR-FRET tracer displacement, KRas Q61H. (In general: In TR-FRET formats the signal depends on donor and acceptor labels being close together.)

In test [2] the target is T2, KRas^G12S (Homo sapiens, UniProt P01116, G12S).
T2 construct: Biotinylated KRas (corresponding to amino acids 1-169, produced at Accelegan Inc.); biotin (biotinylated); purchased Accelegan Inc
The experiment in a line: KRas binding assay (TR-FRET tracer displacement), KRas G12S. Conditions: TR-FRET tracer displacement, KRas G12S.

Test [3] deals with T3, KRas^G12A (Homo sapiens, UniProt P01116, G12A).
T3 construct: Biotinylated KRas (corresponding to amino acids 1-169, produced at Accelegan Inc.); biotin (biotinylated); purchased Accelegan Inc
The experiment in a line: KRas binding assay (TR-FRET tracer displacement), KRas G12A. Conditions: TR-FRET tracer displacement, KRas G12A.

Test [4] concerns the target T4, KRas^G12C (Homo sapiens, UniProt P01116, G12C).
T4 construct: Biotinylated KRas (corresponding to amino acids 1-169, produced at Accelegan Inc.); biotin (biotinylated); purchased Accelegan Inc
Put plainly: KRas binding assay (TR-FRET tracer displacement), KRas G12C. As to conditions: TR-FRET tracer displacement, KRas G12C.

The target in test [5] is T5, KRas^G12V (Homo sapiens, UniProt P01116, G12V).
T5 construct: Biotinylated KRas (corresponding to amino acids 1-169, produced at Accelegan Inc.); biotin (biotinylated); purchased Accelegan Inc
Put plainly: KRas binding assay (TR-FRET tracer displacement), KRas G12V.

Test [6] deals with T6, KRas^G12R (Homo sapiens, UniProt P01116, G12R).
T6 construct: Biotinylated KRas (corresponding to amino acids 1-169, produced at Accelegan Inc.); biotin (biotinylated); purchased Accelegan Inc
Put plainly: KRas binding assay (TR-FRET tracer displacement), KRas G12R.

In test [7] the target is T7, KRas^G12D (Homo sapiens, UniProt P01116, G12D).
T7 construct: Biotinylated KRas (corresponding to amino acids 1-169, produced at Accelegan Inc.); biotin (biotinylated); purchased Accelegan Inc
The experiment in a line: KRas binding assay (TR-FRET tracer displacement), KRas G12D.

In test [8] the target is T8, KRas^WT (Homo sapiens, UniProt P01116).
T8 construct: Biotinylated KRas (corresponding to amino acids 1-169, produced at Accelegan Inc.); biotin (biotinylated); purchased Accelegan Inc
The experiment in a line: KRas binding assay (TR-FRET tracer displacement), KRas WT. Conditions: TR-FRET tracer displacement, KRas WT.

The target in test [9] is T9, KRas^G13D (Homo sapiens, UniProt P01116, G13D).
T9 construct: Biotinylated KRas (corresponding to amino acids 1-169, produced at Accelegan Inc.); biotin (biotinylated); purchased Accelegan Inc
Put plainly: KRas binding assay (TR-FRET tracer displacement), KRas G13D. As to conditions: TR-FRET tracer displacement, KRas G13D.

Test [10] has as its system KRas-mediated phosphorylation of ERK in H460 cells. Put plainly: Inhibition of KRas-mediated phosphorylation of ERK (Cisbio HTRF pERK), H460 cells. The test is classed as cell-based. As to conditions: Homo sapiens, NCI-H460, HTRF pERK. The procedure, abridged:
(§1)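 Compound treatment lasts 3 hrs on 6,000 seeded cells, testing 10 doses from a 10 uM top concentration in 3-fold decrements at 0.8% final DMSO. Trametinib at 0.2 uM defines the Min signal. Detection is HTRF on cold-lysed cell extracts.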

Test [11] deals with KRas-mediated phosphorylation of ERK in A549 cells. Put plainly: Inhibition of KRas-mediated phosphorylation of ERK (Cisbio HTRF pERK), A549 cells. Conditions: Homo sapiens, HTRF pERK. Type of test: cell-based. The procedure, abridged:
as §1

Test [12] relates to KRas-mediated phosphorylation of ERK in AsPC-1 cells. Put plainly: Inhibition of KRas-mediated phosphorylation of ERK (Cisbio HTRF pERK), AsPC-1 cells. The test is classed as cell-based. Conditions: Homo sapiens, ASPC1, AsPC-1 cells; HTRF pERK. The procedure, abridged: as §1
The test system of test [13] is KRas-mediated phosphorylation of ERK in HCT116 cells. The experiment in a line: Inhibition of KRas-mediated phosphorylation of ERK (Cisbio HTRF pERK), HCT116 cells. Type of test: cell-based. As to conditions: Homo sapiens, HCT-116, HTRF pERK. A digest of the protocol: as §1
In test [14] the test system is KRas-mediated phosphorylation of ERK in H727 cells. The experiment in a line: Inhibition of KRas-mediated phosphorylation of ERK (Cisbio HTRF pERK), H727 cells. Conditions: Homo sapiens, NCI-H727, H727 cells; HTRF pERK. Type of test: cell-based. The procedure, abridged:
as §1

Test [15] concerns KRas-mediated phosphorylation of ERK in MKN1 cells. The experiment in a line: Inhibition of KRas-mediated phosphorylation of ERK (Cisbio HTRF pERK), MKN1 cells. Type of test: cell-based. As to conditions: Homo sapiens, MKN-1. The procedure, abridged: (§2)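 HTRF pERK read-out; 6,000 cells/well, RPMI_10% FBS, overnight 37° C./5% CO2; 4 h covered incubation at RT before reading.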
In test [16] the test system is KRas-mediated phosphorylation of ERK in PSN1 cells. Put plainly: Inhibition of KRas-mediated phosphorylation of ERK (Cisbio HTRF pERK), PSN1 cells. The test is classed as cell-based. As to conditions: Homo sapiens. The procedure, abridged:
as §2

In test [17] the test system is KRas-mediated phosphorylation of ERK in H358 cells. The experiment in a line: Inhibition of KRas-mediated phosphorylation of ERK (Cisbio HTRF pERK), H358 cells. Conditions: Homo sapiens, NCI-H358, HTRF pERK. The test is classed as cell-based. A digest of the protocol: as §1

T3 sequence (P01116 1-169 isoform P01116-2 G12A): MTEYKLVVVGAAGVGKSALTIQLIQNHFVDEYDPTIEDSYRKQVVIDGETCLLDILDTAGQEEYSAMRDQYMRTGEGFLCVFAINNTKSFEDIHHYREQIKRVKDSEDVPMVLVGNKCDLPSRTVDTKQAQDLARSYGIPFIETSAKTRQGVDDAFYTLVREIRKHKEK
T6 sequence (P01116 1-169 isoform P01116-2 G12R): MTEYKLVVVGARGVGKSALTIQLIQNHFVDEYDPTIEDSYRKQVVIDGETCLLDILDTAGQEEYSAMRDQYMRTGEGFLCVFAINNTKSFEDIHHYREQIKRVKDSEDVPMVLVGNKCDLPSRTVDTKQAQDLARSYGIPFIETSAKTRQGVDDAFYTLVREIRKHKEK
T5 sequence (P01116 1-169 isoform P01116-2 G12V): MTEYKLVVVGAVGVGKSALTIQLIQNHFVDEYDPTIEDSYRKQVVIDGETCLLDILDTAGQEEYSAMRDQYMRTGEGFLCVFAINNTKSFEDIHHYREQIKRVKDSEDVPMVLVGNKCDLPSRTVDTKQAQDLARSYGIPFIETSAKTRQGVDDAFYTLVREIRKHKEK
T7 sequence (P01116 1-169 isoform P01116-2 G12D): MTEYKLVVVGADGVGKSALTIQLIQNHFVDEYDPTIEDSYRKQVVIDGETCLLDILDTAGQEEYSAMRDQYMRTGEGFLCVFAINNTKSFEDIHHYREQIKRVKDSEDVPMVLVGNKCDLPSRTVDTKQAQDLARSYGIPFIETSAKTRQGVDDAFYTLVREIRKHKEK
T2 sequence (P01116 1-169 isoform P01116-2 G12S): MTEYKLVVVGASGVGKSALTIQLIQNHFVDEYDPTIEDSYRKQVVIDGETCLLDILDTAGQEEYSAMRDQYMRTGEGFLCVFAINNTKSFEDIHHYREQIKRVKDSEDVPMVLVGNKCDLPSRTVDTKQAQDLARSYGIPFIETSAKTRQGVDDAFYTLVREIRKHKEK
T4 sequence (P01116 1-169 isoform P01116-2 G12C): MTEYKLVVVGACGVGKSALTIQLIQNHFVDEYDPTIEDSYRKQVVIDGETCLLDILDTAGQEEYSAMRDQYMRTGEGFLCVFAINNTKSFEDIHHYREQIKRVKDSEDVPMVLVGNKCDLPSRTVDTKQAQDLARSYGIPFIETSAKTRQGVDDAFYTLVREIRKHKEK
T1 sequence (P01116 1-169 isoform P01116-2 Q61H): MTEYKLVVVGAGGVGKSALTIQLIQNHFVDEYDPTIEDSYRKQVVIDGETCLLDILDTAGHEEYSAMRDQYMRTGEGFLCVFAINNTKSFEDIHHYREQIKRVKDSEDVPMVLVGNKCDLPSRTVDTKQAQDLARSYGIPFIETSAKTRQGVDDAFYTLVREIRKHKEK
T9 sequence (P01116 1-169 isoform P01116-2 G13D): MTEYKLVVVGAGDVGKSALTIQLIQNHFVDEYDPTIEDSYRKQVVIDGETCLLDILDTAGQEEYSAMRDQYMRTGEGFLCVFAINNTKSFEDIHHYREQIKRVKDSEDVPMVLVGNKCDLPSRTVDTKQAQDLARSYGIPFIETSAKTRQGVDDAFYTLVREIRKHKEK
T8 sequence (P01116 1-169 isoform P01116-2): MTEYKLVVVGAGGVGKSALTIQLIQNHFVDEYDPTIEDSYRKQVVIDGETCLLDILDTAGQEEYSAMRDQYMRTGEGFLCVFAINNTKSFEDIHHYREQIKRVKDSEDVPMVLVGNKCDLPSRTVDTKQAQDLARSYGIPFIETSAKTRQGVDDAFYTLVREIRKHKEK

As for `O=C1NC(=O)C2CC(c3nc(OCC45CCCN4CCC5)nc4c(F)c(-c5cccc6cccc(F)c56)ncc34)=CC12` (centres unmarked) [Example 525, 5-(8-fluoro-7-(8-fluoronaphthalen-1-yl)-2-((tetrahydro-1H-pyrrolizin-7a(5H)-yl)methoxy)pyrido[4,3-d]pyrimidin-4-yl)-4,6a-dihydrocyclopenta[c]pyrrole-1,3(2H,3aH)-dione], the IC50 in test [1] was more than 100000 nM; in test [2], more than 100000 nM; in [3] it was 93800 nM; in test [4] it was more than 100000 nM; in [5], 55900 nM; in test [6], 45400 nM. Also, the IC50 in test [7] was 50700 nM; in [8] it was more than 100000 nM; in [9], more than 100000 nM.

On to `O[C@@H]1C[C@H]2C[C@@H]1CN(c1nc(OC[C@@]34CCCN3C[C@H](F)C4)nc3c(F)c(-c4cccc5ccccc45)ncc13)C2` [Example 724, (1R,5R,6R)-3-(8-fluoro-2-(((2R,7aS)-2-fluorohexahydro-1H-pyrrolizin-7a-yl)methoxy)-7-(naphthalen-1-yl)pyrido[4,3-d]pyrimidin-4-yl)-3-azabicyclo[3.2.1]octan-6-ol], for which the IC50 in test [1] was determined as 612 nM; in [2] it was 170 nM; in test [3] it was 301 nM; in [4], 185 nM; in [5], 404 nM; in [6], 720 nM. The IC50 in [7] is 1590 nM; in [8], 419 nM; in test [9] it was 585 nM.

Regarding `Cc1cc2sncc2c(-c2ncc3c(N4CCC[C@@](C)(O)C4)nc(OCC45CCCN4CCC5)nc3c2F)c1C` [Example 820, (3R)-1-(7-(5,6-dimethylbenzo[d]isothiazol-4-yl)-8-fluoro-2-((tetrahydro-1H-pyrrolizin-7a(5H)-yl)methoxy)pyrido[4,3-d]pyrimidin-4-yl)-3-methylpiperidin-3-ol], the IC50 stood at 2130 nM in test [1]; 1510 nM in [2]; 634 nM in [3]; 591 nM in test [4]; 52000 nM in test [5]; 76200 nM in [6]. The results for the IC50 in test [7], in [8] and in [9] were 22900 nM, 1400 nM and 470 nM, respectively.

Regarding `Cc1cc2[nH]nnc2c(-c2ncc3c(N4CCC[C@@](C)(O)C4)nc(OC[C@@]45CCCN4C[C@H](F)C5)nc3c2F)c1C` [Example 821, (3R)-1-(7-(5,6-dimethyl-1H-benzo[d][1,2,3]triazol-4-yl)-8-fluoro-2-(((2R,7aS)-2-fluorotetrahydro-1H-pyrrolizin-7a(5H)-yl)methoxy)pyrido[4,3-d]pyrimidin-4-yl)-3-methylpiperidin-3-ol], the IC50 in [1] was 196 nM; in test [2] it was 121 nM; in test [3] it was 137 nM; in test [4], 146 nM; in test [5] it was 5850 nM; in test [6] it was 12000 nM. The results for the concentration for half-maximal inhibition (IC50) in [7], in test [8] and in [9] were 3890 nM, 151 nM and 146 nM, respectively.

Regarding `Cc1cc2[nH]nnc2c(-c2ncc3c(N4CCOC[C@@](C)(O)C4)nc(OCC45CCCN4CCC5)nc3c2F)c1C` [Example 822, (6S)-4-(7-(5,6-dimethyl-1H-benzo[d][1,2,3]triazol-4-yl)-8-fluoro-2-((tetrahydro-1H-pyrrolizin-7a(5H)-yl)methoxy)pyrido[4,3-d]pyrimidin-4-yl)-6-methyl-1,4-oxazepan-6-ol], the concentration for half-maximal inhibition (IC50) in [1] came out at 5660 nM; in test [2], 4660 nM; in test [3], 4980 nM; in test [4] it was 4080 nM; in test [5] it was 3430 nM; in [6], 9670 nM. Further, the IC50 in test [7] stood at 2180 nM; in test [8] it was 5420 nM; in [9], 5410 nM.

In the case of `Cc1cc2[nH]nnc2c(-c2ncc3c(N4CCCC5(C4)NC(=O)NC5=O)nc(OCC45CCCN4CCC5)nc3c2F)c1C` (centres unmarked) [Example 823, 7-(7-(5,6-dimethyl-1H-benzo[d][1,2,3]triazol-4-yl)-8-fluoro-2-((tetrahydro-1H-pyrrolizin-7a(5H)-yl)methoxy)pyrido[4,3-d]pyrimidin-4-yl)-1,3,7-triazaspiro[4.5]decane-2,4-dione], the IC50 in [1] was found to be 1390 nM; in test [2] it was 1370 nM; in [3], 1430 nM; in [4], 1300 nM; in test [5] it was 922 nM; in test [6], 1380 nM. In addition, the half-maximal inhibitory concentration (IC50) in [7] stood at 2220 nM; in test [8], 1420 nM; in [9], 1270 nM.

On to `Cc1cc2[nH]nnc2c(-c2ncc3c(N4C[C@@H]5C[C@H](C4)[C@H](O)C5)nc(OCC45CCCN4CCC5)nc3c2F)c1C` [Example 832, (1R,5R,6R)-3-(7-(5,6-dimethyl-1H-benzo[d][1,2,3]triazol-4-yl)-8-fluoro-2-((tetrahydro-1H-pyrrolizin-7a(5H)-yl)methoxy)pyrido[4,3-d]pyrimidin-4-yl)-3-azabicyclo[3.2.1]octan-6-ol], for which the IC50 in test [1] was determined as 4610 nM; in [2], 2940 nM; in [3], 3770 nM; in test [4], 3200 nM; in test [5] it was 4550 nM; in [6], 6410 nM. Further, the results for the IC50 in test [7], in test [8] and in [9] were 17100 nM, 4590 nM and 3880 nM, respectively.

Turning to `CCc1c(F)ccc2cc(O)cc(-c3ncc4c(N5CC=CCC5)nc(OC[C@@]56CCCN5C[C@H](F)C6)nc4c3F)c12` [Example 921, 4-(4-(3,6-dihydropyridin-1(2H)-yl)-8-fluoro-2-(((2R,7aS)-2-fluorotetrahydro-1H-pyrrolizin-7a(5H)-yl)methoxy)pyrido[4,3-d]pyrimidin-7-yl)-5-ethyl-6-fluoronaphthalen-2-ol], the half-maximal inhibitory concentration (IC50) worked out at 2 nM in test [2]; 75 nM in [10]; 68 nM in [11]; 92 nM in test [12]; 309 nM in test [13]; 86 nM in test [14]. For the same compound, the IC50 in test [4] is 2 nM; in [15], 0.4 nM; in test [5], 2 nM; in test [16], 7630 nM; in test [17], 33 nM; in test [7], 4 nM. In addition, in test [8], the half-maximal inhibitory concentration (IC50) came to 4 nM.

As to `CCc1c(F)ccc2cc(O)cc(-c3ncc4c(N5C[C@@H]6C[C@H](C5)[C@H](O)C6)nc(OCC56CCCN5CC5(CC5)C6)nc4c3F)c12` (stereo partly drawn) [Example 931, (1R,5R,6R)-3-(2-((dihydro-1′H,3′H-spiro[cyclopropane-1,2′-pyrrolizin]-7a′ (5′H)-yl)methoxy)-7-(8-ethyl-7-fluoro-3-hydroxynaphthalen-1-yl)-8-fluoropyrido[4,3-d]pyrimidin-4-yl)-3-azabicyclo[3.2.1]octan-6-ol], the concentration for half-maximal inhibition (IC50) was less than 2 nM in test [2]; 15 nM in test [10]; 17 nM in test [11]; 58 nM in [12]; 72 nM in test [13]; 59 nM in test [14]. Further, the half-inhibitory concentration (IC50) was less than 2 nM in test [4]; 0.9 nM in test [15]; less than 2 nM in test [5]; 2280 nM in [16]; 5 nM in test [17]; less than 2 nM in test [7]. In test [8], this compound registered a concentration for half-maximal inhibition (IC50) of less than 2 nM.

What is called IC50 is the point on the concentration scale where inhibition reaches its midpoint.
